Measured values as given in patent US8344029B2, “Substituted propanamide derivative and pharmaceutical composition containing the same” (Daiichi Sankyo Company, Limited, priority 2005, dated 2013).

What follows are compounds tested on immature rats (4-week old male Wistar rats) (assay: Evaluation of blood calcium concentration-decreasing activity in immature rats). Settings: Rattus norvegicus; 6 hours after oral administration of 10 mg/kg, fasted 4-week old male Wistar rats, vs normal control group; read-out: serum calcium concentration-decreasing rate.
Format: in vivo
Experimental: The blood calcium concentration in a living body is strictly controlled and constantly maintained by intestinal absorption and urinary excretion and release (bone resorption) and adhesion (bone formation) in bone tissues. […] The bone resorption-suppressing activity of compounds according to the present invention was evaluated by observing decreases in blood calcium concentration in immature rats administered with the compounds as an index of the activity.
The test was conducted using 4-week old male Wistar rats fasted for 12 to 24 hours. Each compound to be tested was suspended in 0.5% methyl cellulose (MC). The suspension was orally administered to the rats at a dose of 5 mL/kg. Rats of a normal control group were similarly administered with 0.5% MC alone. Then, blood was drawn from rat jugular vein under ether anesthesia 6 hours after the administration of each test compound or 0.5% MC. The blood was immediately centrifuged (10000 rpm/revolutions per minute, 5 minutes) at room temperature to separate serum. The calcium concentration of each serum was measured by an autoanalyzer (JEOL, JCA-BM2250). Five rats were used for each test group.
The evaluation was conducted by a comparative test with the normal control group based on the serum calcium concentration-decreasing rate (%) calculated according to the following equation: Serum calcium concentration-decreasing rate(%)=(([serum calcium concentration in normal control group]−[serum calcium concentration in test compound administration group]/[serum calcium concentration in normal control group])×100.
`O=C(NC(Cc1ccc(OC(F)F)cc1)C(=O)NCCO)c1ccc(OCCC2CC2)cc1` (stereo not drawn) [Example 3, 4-(2-Cyclopropylethoxy)-N-{1-[4-(difluoromethoxy)benzyl]-2-[(2-hydroxyethyl)amino]-2-oxoethyl}benzamide] showed an inhibition in vivo at 10 mg/kg of at least 10%.
With `O=C(NC(Cc1ccc(OC(F)(F)F)cc1)C(=O)NCCO)c1ccc(OCCC2CC2)cc1` (stereo not drawn) [Example 4, 4-(2-Cyclopropylethoxy)-N-{2-[(2-hydroxyethyl)amino]-2-oxo-1-[4-(trifluoromethoxy)benzyl]ethyl}benzamide] the inhibition in vivo at 10 mg/kg was at least 10%.
Compound `O=C(NC(Cc1ccc(C(F)(F)F)cc1)C(=O)NCCO)c1ccc(OCCC2CC2)cc1` (stereo not drawn) [Example 7, 4-(2-Cyclopropylethoxy)-N-{2-[(2-hydroxyethyl)amino]-2-oxo-1-[4-(trifluoromethyl)benzyl]ethyl}benzamide] has an inhibition in vivo at 10 mg/kg of at least 10%.
In the case of `O=C(NC(Cc1ccc(OC(F)F)cc1)C(=O)NCCO)c1ccc(OCC2CC2)cc1` (stereo not drawn) [Example 18, 4-(Cyclopropylmethoxy)-N-{1-[4-(difluoromethoxy)benzyl]-2-[(2-hydroxyethyl)amino]-2-oxoethyl}benzamide], the inhibition in vivo at 10 mg/kg is reported as at least 10%.
Work on `O=C(NC(Cc1ccc(OC(F)(F)F)cc1)C(=O)NCCO)c1ccc(OCC2CC2)cc1` (stereo not drawn) [Example 19, 4-(Cyclopropylmethoxy)-N-{2-[(2-hydroxyethyl)amino]-2-oxo-1-[4-(trifluoromethoxy)benzyl]ethyl}benzamide] yielded an inhibition in vivo at 10 mg/kg of at least 10%.
For `O=C(NC(Cc1ccc(OC2CC2)cc1)C(=O)NCCO)c1ccc(OCC2CC2)cc1` (stereo not drawn) [Example 20, 4-(Cyclopropylmethoxy)-N-{1-[4-(cyclopropyloxy)benzyl]-2-[(2-hydroxyethyl)amino]-2-oxoethyl}benzamide], the inhibition in vivo at 10 mg/kg was at least 10%.
In the case of `O=C(NC(Cc1ccc(C(F)(F)F)cc1)C(=O)NCCO)c1ccc(OCC2CC2)cc1` (stereo not drawn) [Example 22, 4-(Cyclopropylmethoxy)-N-{2-[(2-hydroxyethyl)amino]-2-oxo-1-[4-(trifluoromethyl)benzyl]ethyl}benzamide], the inhibition in vivo at 10 mg/kg is reported as at least 10%.
In the case of `O=C(NC(Cc1ccc(C2CC2)cc1)C(=O)NCCO)c1ccc(OCC2CC2)cc1` (stereo not drawn) [Example 23, N-{1-(4-Cyclopropylbenzyl)-2-[(2-hydroxyethyl)amino]-2-oxoethyl}-4-(cyclopropylmethoxy)benzamide], the inhibition in vivo at 10 mg/kg is reported as at least 10%.
With `O=C(NC(Cc1ccc(OC(F)(F)F)cc1)C(=O)NCCO)c1ccc(OCCCC2CC2)cc1` (stereo not drawn) [Example 25, 4-(3-Cyclopropylpropoxy)-N-{2-[(2-hydroxyethyl)amino]-2-oxo-1-[4-(trifluoromethoxy)benzyl]ethyl}benzamide] the inhibition in vivo at 10 mg/kg was at least 10%.
Compound `O=C(NC(Cc1ccc(OC(F)(F)F)cc1)C(=O)NCCO)c1ccc(OCC(F)F)cc1` (stereo not drawn) [Example 31, 4-(2,2-Difluoroethoxy)-N-{2-[(2-hydroxyethyl)amino]-2-oxo-1-[4-(trifluoromethoxy)benzyl]ethyl}benzamide] has an inhibition in vivo at 10 mg/kg of at least 10%.
`O=C(NC(Cc1ccc(OC(F)(F)F)cc1)C(=O)NCCO)c1ccc(OCCC(F)(F)F)cc1` (stereo not drawn) [Example 34, N-{2-[(2-Hydroxyethyl)amino]-2-oxo-1-[4-(trifluoromethoxy)benzyl]ethyl}-4-(3,3,3-trifluoropropoxy)benzamide] gave an inhibition in vivo at 10 mg/kg of at least 10%.
In the case of `O=C(NC(Cc1ccc(OC(F)(F)F)cc1)C(=O)NCCO)c1ccc(OCC2CC2(F)F)cc1` (stereo not drawn) [Example 40, 4-[(2,2-Difluorocyclopropyl)methoxy]-N-{2-[(2-hydroxyethyl)amino]-2-oxo-1-[4-(trifluoromethoxy)benzyl]ethyl}benzamide], the inhibition in vivo at 10 mg/kg is reported as at least 10%.
`O=C(NC(Cc1ccc(OC(F)(F)F)cc1)C(=O)NCCO)c1ccc(Oc2ccc(C(F)(F)F)cc2)cc1` (stereo not drawn) [Example 42, N-{2-[(2-Hydroxyethyl)amino]-2-oxo-1-[4-(trifluoromethoxy)benzyl]ethyl}-4-[4-(trifluoromethyl)phenoxy]benzamide] showed an inhibition in vivo at 10 mg/kg of at least 10%.

What follows are compounds tested on adjuvant arthritis model rats (8-week old female Lewis rats) (assay: Bone density decrease-suppressing activity in adjuvant arthritis model rats). Settings: dose 3 mg/kg, oral once a day for 7 days from day 14 after adjuvant injection; femur bone density on the 21st day.
Format: in vivo, rat
Experimental: In rheumatoid arthritis, not only swelling and pain caused by arthritis but also systemic bone mass decrease and articular destruction caused by a significant increase in bone resorption are observed.
The test was conducted using 8-week old female Lewis rats. Mycobacterium butyricum cells killed by heat were ground in an agate mortar, suspended in liquid paraffin sterilized by dry heat to a concentration of 2 mg/mL, and treated with ultrasonic to prepare an adjuvant. Under ether anesthesia, rats in a control group other than a normal control group and rats in test compound administration group were intradermally injected with 0.05 mL of the adjuvant each time (0.1 mL/rat in total) at two portions of the base of the tail. Starting from 14 days after the injection of the adjuvant, each rat was orally administered with 5 mL/kg of a test compound suspended in 0.5% MC once a day for 7 days. The rats of the control group were similarly administered with 0.5% MC alone. On the 21st day after the adjuvant injection, the femur was biopsied. The femur, after removing soft tissues, was sufficiently fixed, dehydrated, and dried with ethanol. The bone density of the femur was measured with a bone density analyzer (Aloka, DOS-600 EX-IIIR). Five rats were used for each group.
The evaluation was conducted by comparative tests with the normal control group and the control group based on the bone density decrease-suppressing rate (%) calculated according to the following equation: Bone density decrease-suppressing rate(%)=((1−([femur bone density in normal control group]−[femur bone density in test compound administration group]))/([femur bone density in normal control group]−[femur bone density in control group]))×100
In the case of `O=C(N[C@@H](Cc1ccc(OC(F)(F)F)cc1)C(=O)NCCO)c1ccc(OCC2CC2)cc1` [Example 51, 4-(Cyclopropylmethoxy)-N-{(1S)-2-[(2-hydroxyethyl)amino]-2-oxo-1-[4-(trifluoromethoxy)benzyl]ethyl}benzamide], the “Bone density decrease-suppressing rate (%)” value is reported as 85%.
For `O=C(N[C@@H](Cc1ccc(OC(F)(F)F)cc1)C(=O)NCCO)c1ccc(OCCC(F)(F)F)cc1` [Example 57, N-{(1S)-2-[(2-Hydroxyethyl)amino]-2-oxo-1-[4-(trifluoromethoxy)benzyl]ethyl}-4-(3,3,3-trifluoropropoxy)benzamide], the “Bone density decrease-suppressing rate (%)” value was 86%.
With `O=C(N[C@@H](Cc1ccc(OC(F)F)cc1)C(=O)NCCO)c1ccc(OCCC(F)(F)F)cc1` [Example 59, N-{(1S)-1-[4-(Difluoromethoxy)benzyl]-2-[(2-hydroxyethyl)amino]-2-oxoethyl}-4-(3,3,3-trifluoropropoxy)benzamide] the “Bone density decrease-suppressing rate (%)” value was 92%.
For `O=C(N[C@@H](Cc1ccc(C(F)(F)F)cc1)C(=O)NCCO)c1ccc(OCCC(F)(F)F)cc1` [Example 61, N-{(1S)-2-[(2-Hydroxyethyl)amino]-2-oxo-1-[4-(trifluoromethyl)benzyl]ethyl}-4-(3,3,3-trifluoropropoxy)benzamide], the “Bone density decrease-suppressing rate (%)” value was 75%.
With `O=C(N[C@@H](Cc1ccc(OC(F)(F)F)cc1)C(=O)NCCO)c1ccc(Oc2ccc(C(F)(F)F)cc2)cc1` [Example 64, N-{(1S)-2-[(2-Hydroxyethyl)amino]-2-oxo-1-[4-(trifluoromethoxy)benzyl]ethyl}-4-[4-(trifluoromethyl)phenoxy]benzamide] the “Bone density decrease-suppressing rate (%)” value was 77%.
